# Measurements from patent US20250041290A1, “USE OF N-(3-(4-(3-(DIISOBUTYLAMINO)PROPYL)PIPERAZIN-1-YL)PROPYL)-1H-BENZO[d]IMIDAZOL-2-AMINE SUCCINATE SALTS AND SOLVATES THEREOF FOR THE TREATMENT OF MOTOR NEURON DISEASES AND NEUROMUSCULAR JUNCTION DISORDERS” (ALZPROTECT, priority 2021, published 2025).
# Columns and labels:
# [1] = tested on: SOD1^G93A Tg rat spinal cord motor neurons; experiment: Primary culture of SOD1^G93A Tg rat spinal cord motor neurons injured with glutamate, 48 h incubation; type: cell-based; settings: glutamate 5 μM 20 min; for Protective effects of reference drugs after glutamate injury: concentration not given
# Method: Female (Sprague Dawley, Janvier) were mated at Neuro-Sys (Gardanne, France) with Tg SOD1^G93A male rats (Taconic Bioscience, US). Pregnant females of 14 days of gestation were used for the culture. The day of the dissection, a piece of each embryo head (˜3 mm^3) was placed in a 2 mL DNase free tube with a new scalpel. The DNA was extracted with the SYBR Green Extract-N-Amp tissue PCR kit (Sigma Aldrich). Briefly, 120 μL of extraction solution was put on each piece of embryo heads. Then, they were incubated for 10 min at room temperature. At the end of this incubation period, the heads were incubated for 5 min at 95° C. Immediately after this last incubation, 100 μL of neutralizing solution was added; each DNA extract was diluted at 1/40 and stored at +4° C. until use. SOD1^G93A gene was determined using genomic fragment with human SOD1 primers (5′-[…]-3′ SEQ ID NO: 1; 5′-[…]-3′ SEQ ID NO:2). The SOD1 primers were diluted at 3 μM in sterile ultrapure water. Briefly, a mix for PCR was prepared with ultrapure water (4 μL per sample), primer at 3 μM (2 μL per sample) and Master Mix (10 μL per sample). In a PCR 96 wells plate, 16 μL of PCR mix was added in each well. 4 μL of each diluted DNA was added according to a plan deposit.
# Rat spinal cord motor neurons were cultured as described by Boussicault et al., J Neurosci Res. 2020 December; 98 (12), 2435-50 and Wang et al. Hum. Mol. Genet., 2013 December 1; 22 (23), 4706-19. Pregnant female rats of 14 days of gestation were killed by cervical dislocation. The culture was carried out as described in example 1.
# On day 13, culture medium was removed and cultures were exposed to the test compounds: N-(3-(4-(3-(diisobutylamino)propyl)piperazin-1-yl)propyl)-1H-benzo[d]imidazol-2-amine) sesqui-succinate salt Form 1, in comparison to Riluzole and Edaravone, and glutamate (5 μM) for 20 min at 37° C. in defined medium. After glutamate exposure, the cultures were washed with defined medium at 37° C. then placed in fresh culture medium containing the test compound, Riluzole or Edavarone for additional 48h.
# • The end point evaluation was carried out as described in example 1.
# (§1) The statistical analysis was carried out as described in example 1.
# people with ALS = settings: injected intravenously; small subset of people with ALS; phase 3; cited from earlier work
# [2] = tested on: neuromuscular junctions in co-culture of human myoblasts and rat spinal cord explants; experiment: Co-culture of human myoblasts and rat spinal cord explants (neuromuscular junctions) injured with glutamate; type: cell-based; settings: glutamate 60 μM 20 min, 48 h incubation
# [3] = tested on: Rat spinal cord motor neurons (MN); experiment: Rat primary spinal cord motor neurons injured with glutamate, 48 h incubation with compound; type: cell-based; settings: glutamate 5 μM 20 min
# Method: Rat spinal cord motor neurons (MN) were cultured as previously described by Boussicault et al., J Neurosci Res. 2020 December; 98 (12), 2435-50 and Wang et al. Hum. Mol. Genet., 2013-12-1; 22 (23), 4706-19. Pregnant female rats of 14 days gestation (Rats Wistar; Janvier Labs France) were killed using a deep anesthesia with CO2 chamber followed by cervical dislocation. Then, embryos (E14) were removed from the uterus and immediately placed in ice-cold L15 Leibovitz medium with a 2% penicillin (10,000 U/mL) and streptomycin (10 mg/mL) solution (PS) and 1% bovine serum albumin (BSA). Spinal cords were removed and placed in ice-cold medium of Leibovitz (L15). Spinal cords were treated for 20 min at 37° C. with a trypsin-Ethylenediaminetetraacetic acid (EDTA) solution at a final concentration of 0.05% trypsin and 0.02% EDTA. The dissociation was stopped by the addition of Dulbecco's modified Eagle's medium (DMEM) with 4.5 g/liter of glucose, containing DNAse I grade II (final concentration 0.5 mg/mL) and 10% fetal calf serum (FCS). Cells were mechanically dissociated by three forced passages through the tip of a 10-mL pipette. Cells were then centrifuged at 515×g for 10 min at +4° C. The supernatant was discarded, and the pellet was resuspended in a defined culture medium consisting of Neurobasal medium with a 2% solution of B27 supplement, 2 mmol/liter of L-glutamine, 2% of PS solution, and 10 ng/ml of brain-derived neurotrophic factor (BDNF). Viable cells were counted in a Neubauer cytometer, using the trypan blue exclusion test. The cells were seeded at a density of 20,000 per well in 96-well plates precoated with poly-L-lysine and cultured at 37° C. in an air (95%)-CO2 (5%) incubator. The medium was changed every 2 days.
# On day 13 of culture, glutamate was added to a final concentration of 5 μM diluted in control medium in presence of the sesqui-succinate Form 1 for 20 min. After 20 min, glutamate was washed and fresh culture medium with the sesqui-succinate Form 1 was added for 48 hours.
# After 15 days of culture (48h after the glutamate injury), the cell culture supernatant was collected and the spinal cord MNs were fixed by a cold solution of ethanol (95%) and acetic acid (5%) for 5 min at −20° C. for immunostaining. Cells were washed twice in PBS. Cell membranes were permeabilized and non-specific sites were blocked with a solution of PBS containing 0.1% of saponin and 1% FCS for 15 min at room temperature. Then, cells were incubated for 2 hours with: • a) mouse monoclonal antibody anti-microtubule associated protein 2 (MAP-2) at dilution of 1/400 in PBS containing 1% fetal calf serum and 0.1% of saponin. This antibody binds specifically MAP-2 present in cell bodies and neurites of all MNs. […] Cytoplasmic localization of TDP43 was investigated.
# Nuclei of neurons were counterstained with the fluorescent dye (Hoechst).
# For each condition, 30 pictures (representative of the whole well area) per well were automatically taken using ImageXpress (Molecular Devices) with 20× magnification. All images were taken under the same conditions (exposition time, gain and laser intensity). Analysis of different endpoints, were automatically performed using Custom Module Editor (Molecular Devices). Motoneurons (MAP-2) were distinguished from interneurons (staining MAP-2) using the following morphological criteria: a cell body diameter […] and the presence of a minimum of three neuritic processes (Ferraiuolo et al. Brain 2011:134; 2627-2641).
# The endpoints were: • survival of MNs (MAP-2 staining number of MNs) • neurite network of MNs (MAP-2 staining, total neurite length expressed in μm) • cytoplasmic TDP43 (extranuclear, eTDP43) in MAP-2 positive MNs (overlapping between MAP-2 and cytoplasmic TDP-43 in μm^2). Results are expressed as the ratio of the overlapping MAP-2/TDP-43 per number of MNs.
# All values are expressed as mean+/−SEM. Statistical analyses were performed using one-way ANOVA followed by PLSD Fisher test. […]
# [4] = tested on: Rat spinal cord motor neurons (MN); experiment: Rat primary spinal cord motor neurons injured with glutamate, 24 h pre-incubation + 24 h post-injury incubation; type: cell-based
# Method: The culture was carried out as described in example 1.
# On day 12 of culture, primary motor neurons were treated with the sesqui-succinate Form 1 for 24 hours. On day 13 of culture, glutamate was added to a final concentration of 5 µM diluted in control medium in presence of the sesqui-succinate salt Form 1 for 20 min. After 20 min, glutamate was washed and fresh culture medium with the sesqui-succinate Form 1 was added for an additional 24 hours.
# The end point evaluation was carried out as described in example 1.
# as §1
# [5] = 30 nM to 300 nM, 48 h incubation
# [6] = 30 nM to 300 nM, 24 h pre-incubation + 24 h incubation
compound,measurement,setting,value
"CC1=NN(c2ccccc2)C(=O)C1 [Edaravone, reference compound]",Protective effects of reference drugs after glutamate injury,[1]; FIG. 9,protective effects
same,Decline of ALS Functional Rating Scale-Revised score compared with placebo,people with ALS,significantly smaller decline
"Nc1nc2ccc(OC(F)(F)F)cc2s1 [Riluzole, reference compound]",Protective effects of reference drugs after glutamate injury,[1]; FIG. 9,protective effects
same,Protective effects of reference drug after glutamate injury,"[2]; concentration not given, FIG. 10",protective effects
N-(3-(4-(3-(diisobutylamino)propyl)piperazin-1-yl)propyl)-1H-benzo[d]imidazol-2-amine sesqui-succinate salt [sesqui-succinate salt Form 1],"Motor neuron survival (number of MAP-2 positive MNs), mean, percentage of control","[3]; 30 nM (maximal effect), then 48 h with compound, glutamate alone mean 58%, FIG. 7A",79%
same,Effect on motor neuron survival compared to the glutamate condition,[3]; [5],positive and significant effect
same,Effect on neurite network after glutamate injury,[3]; [5],able to improve the neurite network
same,"Neurite network integrity (MAP-2 total neurite length), mean, percentage of control","[3]; 100 nM (maximal effect), 48 h incubation, glutamate alone mean 62%, FIG. 7B",77%
same,Reduction of accumulation of TDP-43 in the cytoplasm (extranuclear TDP-43),"[3]; 300 nM, 48 h incubation, glutamate alone mean 135% of control, FIG. 7C",up to 17%
same,Effect on accumulation of TDP-43 in the cytoplasm (extranuclear TDP-43),"[3]; 30 to 300 nM, 48 h incubation",significantly reduce
same,Effect on motor neuron survival compared to the glutamate condition,[4]; [6],positive and significant effect
same,Effect on neurite network after glutamate damage,[4]; [6],able to protect the neurite network
same,Reduction of abnormal distribution of TDP-43 (extranuclear TDP-43),"[4]; 30 nM to 300 nM, 24 h pre-incubation + 24 h incubation, glutamate alone mean 139% of control, FIG. 8C",up to 14%
same,"Neurite network integrity, mean, percentage of control","[4]; 300 nM (maximal effect), 24 h pre-incubation + 24 h incubation, glutamate alone mean 60%, FIG. 8B",81%
same,"Motor neuron survival, mean, percentage of control","[4]; 300 nM (maximal effect), 24 h pre-incubation, glutamate 5 µM 20 min, 24 h post-injury incubation, glutamate alone mean 62%, FIG. 8A",79%
same,"Protective effect on neuronal survival, dose relation",[1]; 3 nM to 100 nM,dose-dependent
same,"Protective effect on the distribution of TDP-43, dose relation",[1]; 3 nM to 100 nM,dose-dependent
same,"Neuroprotection (number of MNs, neurite network, TDP-43 distribution) after glutamate injury","[1]; 3 nM to 100 nM, FIG. 9",neuroprotective
same,Protective effects in comparison to Riluzole and Edaravone,[1]; 100 nM,comparable to those of Riluzole or Edaravone
same,Neuroprotective effects on neuromuscular junctions and neurite network,[2]; 300 nM,neuroprotective effects on a dose-dependent manner
same,Number of NMJs,"[2]; 300 nM, versus glutamate, FIG. 10A",increased
same,Total area of NMJs,"[2]; 300 nM, versus glutamate, FIG. 10B",increased
same,Total MNs neurite network (NFH),"[2]; 300 nM, versus glutamate, FIG. 10C",increased
same,Protective effects in comparison to Riluzole,[2],comparable to those of Riluzole
